Test results from patent US5698411A, “Method for determining activity of enzymes in metabolically active whole cells” (priority 1995, dated 1997).

Experiments:
Type in all cases: cell-based, human
monocytes = test: aberrant enzyme activities in febrile children, monocytes (Table 7)
granulocytes = test: aberrant enzyme activities in febrile children, granulocytes (Table 7)
lymphocytes [1] = test: enzyme activity with fluorogenic substrate, normal lymphocytes (Table 3A)
lymphocytes [2] = test: aberrant enzyme activities in febrile children, lymphocytes (Table 7)

Row | Compound | aberrant enzyme activity, MONOS (monocytes; P88 Enteritis) | aberrant enzyme activity, MONOS (monocytes; P97 Pyelonephritis) | aberrant enzyme activity, GRANS (granulocytes; P88 Enteritis) | aberrant enzyme activity, GRANS (granulocytes; P97 Pyelonephritis) | aberrant enzyme activity, GRANS (granulocytes; P102 UTI) | NORMAL LEUKOCYTE ENZYME ACTIVITY LYMPHS Mean (lymphocytes [1]) | aberrant enzyme activity, LYMPHS (lymphocytes [2]; P88 Enteritis) | aberrant enzyme activity, LYMPHS (lymphocytes [2]; P97 Pyelonephritis) | aberrant enzyme activity, LYMPHS (lymphocytes [2]; P99 Viral Syndrome) | aberrant enzyme activity, LYMPHS (lymphocytes [2]; P102 UTI) | further results
1 | CC(=O)Oc1ccc2c(c1)Oc1cc(OC(C)=O)ccc1C21OC(=O)c2ccccc21 [FDA-NAF, fluorescein diacetate, reference compound] | .smallcircle. | .smallcircle. | .smallcircle. | .smallcircle. | .smallcircle. | 17.98 | .smallcircle. | .smallcircle. | .smallcircle. | .smallcircle. | 
2 | O=C1OC2(c3ccc(OP(=O)(O)O)cc3Oc3cc(OP(=O)(O)O)ccc32)c2ccccc21 [DPO4, (PO4)2 fluorescein] | .smallcircle. | .smallcircle. | .smallcircle. | .smallcircle. | .smallcircle. | 54.29 | .smallcircle. | .smallcircle. | .smallcircle. | .smallcircle. | aberrant enzyme activity, MONOS (monocytes; P89 Viral Stomatitis): + (>0.25 Increase over normal range); aberrant enzyme activity, MONOS (monocytes; P92 Adenitis): + (>0.25 Increase over normal range); aberrant enzyme activity, MONOS (monocytes; P95 Viral Syndrome): + (>0.25 Increase over normal range); aberrant enzyme activity, MONOS (monocytes; P99 Viral Syndrome): .smallcircle.; aberrant enzyme activity, MONOS (monocytes; P101 Fever -- Unknown Origin): + (>0.25 Increase over normal range); aberrant enzyme activity, MONOS (monocytes; P102 UTI): .smallcircle.; aberrant enzyme activity, MONOS (monocytes; P103 Viral Syndrome): + (>0.25 Increase over normal range); aberrant enzyme activity, GRANS (granulocytes; P89 Viral Stomatitis): + (>0.25 Increase over normal range); aberrant enzyme activity, GRANS (granulocytes; P92 Adenitis): + (>0.25 Increase over normal range); aberrant enzyme activity, GRANS (granulocytes; P95 Viral Syndrome): .smallcircle.; aberrant enzyme activity, GRANS (granulocytes; P96 Viral Syndrome): .smallcircle.; aberrant enzyme activity, GRANS (granulocytes; P99 Viral Syndrome): .smallcircle.; aberrant enzyme activity, GRANS (granulocytes; P101 Fever -- Unknown Origin): + (>0.25 Increase over normal range); aberrant enzyme activity, GRANS (granulocytes; P103 Viral Syndrome): + (>0.25 Increase over normal range); aberrant enzyme activity, LYMPHS (lymphocytes [2]; P89 Viral Stomatitis): .smallcircle.; aberrant enzyme activity, LYMPHS (lymphocytes [2]; P92 Adenitis): .smallcircle.; aberrant enzyme activity, LYMPHS (lymphocytes [2]; P95 Viral Syndrome): .smallcircle.; aberrant enzyme activity, LYMPHS (lymphocytes [2]; P96 Viral Syndrome): - (>0.25 Decrease over normal range); aberrant enzyme activity, LYMPHS (lymphocytes [2]; P101 Fever -- Unknown Origin): .smallcircle.; aberrant enzyme activity, LYMPHS (lymphocytes [2]; P103 Viral Syndrome): .smallcircle.
